Test results: ChEMBL document CHEMBL1148617, “Design, synthesis, and structure-activity relationships of 1-,3-,8-, and 9-substituted-9-deazaxanthines at the human A2B adenosine receptor” (J Med Chem, 2006)

Legend:
[1] = molecular target: T1, Adenosine receptor A2b (Homo sapiens) (UniProt P29275); assay: Displacement of [3H]DPCPX from recombinant human adenosine A2B receptor expressed in HEK293 cells at 0.1 uM; format: cell-based
T1 sequence (whole entry): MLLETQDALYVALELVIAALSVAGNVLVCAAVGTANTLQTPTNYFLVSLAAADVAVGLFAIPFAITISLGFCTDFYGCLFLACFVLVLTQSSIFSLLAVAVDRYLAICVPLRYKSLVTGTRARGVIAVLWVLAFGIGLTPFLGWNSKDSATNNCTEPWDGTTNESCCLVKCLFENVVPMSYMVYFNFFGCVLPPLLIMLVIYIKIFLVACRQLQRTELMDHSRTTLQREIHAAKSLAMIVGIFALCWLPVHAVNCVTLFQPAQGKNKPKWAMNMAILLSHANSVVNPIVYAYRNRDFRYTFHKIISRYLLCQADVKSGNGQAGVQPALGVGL

[2] = molecular target: T2, Adenosine receptor A2a (Homo sapiens, UniProt P29274); assay: Displacement of [3H]ZM-241385 from recombinant human adenosine A2A receptor expressed in HeLa cells at 0.1 uM
[3] = molecular target: T1, Adenosine receptor A2b (Homo sapiens); assay: Displacement of [3H]DPCPX from recombinant human adenosine A2B receptor expressed in HEK293 cells at 0.01 uM
[4] = molecular target: T3, Adenosine receptor A2a (Rattus norvegicus, UniProt P30543); assay: Antagonist potency against adenosine A2A receptor of Sprague-Dawley rat aortic smooth muscle; format: functional; conditions: read-out: pA2 (converted)
[5] = molecular target: T4, Adenosine receptor A3 (Homo sapiens) (UniProt P0DMS8); assay: Displacement of [3H]NECA from recombinant human adenosine A3 receptor expressed in HeLa cells at 1uM; format: cell-based
T4 sequence (whole entry): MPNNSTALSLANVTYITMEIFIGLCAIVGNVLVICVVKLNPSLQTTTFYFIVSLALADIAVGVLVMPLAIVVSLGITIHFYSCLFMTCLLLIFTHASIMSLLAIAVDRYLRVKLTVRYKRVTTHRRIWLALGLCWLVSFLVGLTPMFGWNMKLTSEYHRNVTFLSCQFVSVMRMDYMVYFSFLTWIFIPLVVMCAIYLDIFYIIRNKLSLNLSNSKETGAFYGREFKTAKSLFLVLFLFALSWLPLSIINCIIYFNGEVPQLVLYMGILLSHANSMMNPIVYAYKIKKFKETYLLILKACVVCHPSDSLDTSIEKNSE

[6] = molecular target: T5, Adenosine receptor A1 (Homo sapiens, UniProt P30542)
T5 sequence (P30542 whole entry): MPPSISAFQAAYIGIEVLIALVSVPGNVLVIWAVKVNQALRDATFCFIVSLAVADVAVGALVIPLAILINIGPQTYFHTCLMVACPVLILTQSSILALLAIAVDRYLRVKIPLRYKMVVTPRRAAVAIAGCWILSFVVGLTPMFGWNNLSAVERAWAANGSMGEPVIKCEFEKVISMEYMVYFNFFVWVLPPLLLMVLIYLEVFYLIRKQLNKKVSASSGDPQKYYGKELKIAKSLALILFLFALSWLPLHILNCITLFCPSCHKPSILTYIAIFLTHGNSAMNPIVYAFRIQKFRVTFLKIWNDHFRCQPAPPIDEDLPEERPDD
Description: Binding affinity to recombinant human adenosine A1 receptor

[7] = molecular target: T6, Adenosine receptor A3 (Homo sapiens, UniProt P0DMS8)
T6 sequence (P0DMS8 whole entry): T4 sequence (whole entry)
Description: Binding affinity to recombinant human adenosine A3 receptor

[8] = molecular target: T2, Adenosine receptor A2a
Description: Binding affinity to recombinant human adenosine A2A receptor

[9] = molecular target: T7, Adenosine receptor A2b (Homo sapiens, UniProt P29275)
T7 sequence (P29275 whole entry): T1 sequence (whole entry)
Description: Binding affinity to recombinant human adenosine A2B receptor

[10] = molecular target: T8, Adenosine receptor A1 (Rattus norvegicus, UniProt P25099); assay: Binding affinity to rat adenosine A1 receptor
T8 sequence (P25099 whole entry): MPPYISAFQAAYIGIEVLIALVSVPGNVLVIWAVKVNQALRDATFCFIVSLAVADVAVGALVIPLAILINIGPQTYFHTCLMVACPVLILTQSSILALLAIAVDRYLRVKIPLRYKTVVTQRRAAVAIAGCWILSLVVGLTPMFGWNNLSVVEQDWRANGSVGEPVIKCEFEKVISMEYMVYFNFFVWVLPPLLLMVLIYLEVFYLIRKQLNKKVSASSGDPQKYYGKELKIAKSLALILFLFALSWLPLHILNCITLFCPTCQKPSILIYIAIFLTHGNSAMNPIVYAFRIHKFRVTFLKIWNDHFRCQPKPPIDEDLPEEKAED

[11] = molecular target: T3, Adenosine receptor A2a; assay: Binding affinity to rat adenosine A2A receptor

T2 sequence (P29274 whole entry): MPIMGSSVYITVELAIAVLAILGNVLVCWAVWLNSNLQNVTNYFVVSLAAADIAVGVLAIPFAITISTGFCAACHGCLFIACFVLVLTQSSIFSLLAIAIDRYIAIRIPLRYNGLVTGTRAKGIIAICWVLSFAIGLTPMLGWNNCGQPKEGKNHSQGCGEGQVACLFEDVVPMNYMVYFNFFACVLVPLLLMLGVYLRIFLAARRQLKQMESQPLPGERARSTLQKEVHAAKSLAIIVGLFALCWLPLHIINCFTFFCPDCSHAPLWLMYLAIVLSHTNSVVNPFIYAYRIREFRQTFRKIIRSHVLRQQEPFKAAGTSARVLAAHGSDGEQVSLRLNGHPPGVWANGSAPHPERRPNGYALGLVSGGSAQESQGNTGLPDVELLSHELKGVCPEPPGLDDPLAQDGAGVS
T3 sequence (P30543 whole entry): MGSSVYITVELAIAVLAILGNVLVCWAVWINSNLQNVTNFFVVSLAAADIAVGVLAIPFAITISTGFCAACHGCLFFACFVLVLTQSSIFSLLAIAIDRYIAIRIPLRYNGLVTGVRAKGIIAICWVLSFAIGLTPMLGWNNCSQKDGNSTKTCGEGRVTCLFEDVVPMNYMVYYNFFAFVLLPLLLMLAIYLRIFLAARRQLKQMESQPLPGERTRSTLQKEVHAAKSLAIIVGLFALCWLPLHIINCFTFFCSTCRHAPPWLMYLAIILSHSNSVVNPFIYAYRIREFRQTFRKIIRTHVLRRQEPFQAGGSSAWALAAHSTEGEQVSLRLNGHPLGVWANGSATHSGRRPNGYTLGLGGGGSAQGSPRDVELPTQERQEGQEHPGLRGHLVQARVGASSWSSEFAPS

| inhibition [1] [%] | inhibition [2] [%] | inhibition [3] [%] | Kb [4] [nM] | inhibition [5] [%] | Ki [6] [nM] | Ki [7] [nM] | Ki [8] [nM] | Ki [9] [nM] | Ki [10] [nM] | Ki [11] [nM] | SMILES |
| --- | --- | --- | --- | --- | --- | --- | --- | --- | --- | --- | --- |
| 90 | 12 | 84 | 126 | 8 | 18.2 |  |  |  |  |  | Cn1c(=O)c2[nH]c(-c3ccc(OCC(=O)Nc4ccc(Br)cc4)cc3)cc2n(C)c1=O |
| 91 | 47 | 60 | 43.7 |  | 4.27 |  |  |  |  |  | Cn1c(=O)c2[nH]c(-c3ccc(OCC(=O)Nc4ccc(C#N)cc4)cc3)cc2n(C)c1=O |
| 83 | 20 | 60 | 933 |  | 32.4 | 10700 |  |  |  |  | COc1cc(OCC(=O)Nc2ccc(Br)cc2)ccc1-c1cc2c([nH]1)c(=O)n(C)c(=O)n2C |
| 91 | 10 | 44 |  |  | 240 |  |  |  |  |  | Cn1c(=O)c2[nH]c(-c3ccc(OCC(=O)Nc4ccccc4)cc3)cc2n(C)c1=O |
|  |  |  |  |  |  | 2340 | 1660 | 2.4 |  |  | CCCn1c(=O)c2[nH]c(-c3ccc(OCC(=O)Nc4ccc(Br)cc4)cc3)nc2n(CCC)c1=O |
|  |  |  |  |  | 18.2 |  |  |  |  |  | CCCn1c(=O)c2[nH]c(-c3ccc(OCC(=O)Nc4ccc(F)cc4)cc3)nc2n(CCC)c1=O |
|  |  |  |  |  |  | 3980 |  |  | 63.1 | 2240 | CCCn1c(=O)c2[nH]c(-c3ccc(OCC(=O)O)cc3)nc2n(CCC)c1=O |
| 93 | 15 | 39 | 468 |  | 11 | 12300 |  |  |  |  | CCCn1c(=O)c2[nH]c(-c3ccc(OCC(=O)Nc4ccc(-c5ccccc5)cc4)cc3)cc2n(C)c1=O |
|  |  |  |  |  |  |  |  | 1.91 |  | 129 | CCCn1c(=O)c2nc(-c3ccc(OCC(=O)Nc4ccc(C)cc4)cc3)[nH]c2n(CCC)c1=O |
| 94 | 82 | 55 |  |  |  |  | 31.6 | 6.03 |  |  | CCCn1c(=O)c2[nH]c(-c3ccc(OC(CC)C(=O)Nc4ccc(Br)cc4)cc3)cc2n(CCC)c1=O (stereo not given) |
| 92 | 42 | 50 |  |  |  |  | 105 | 5.13 |  |  | CCCn1c(=O)c2[nH]c(-c3ccc(OC(C)C(=O)Nc4ccccc4)cc3)cc2n(CCC)c1=O (stereo not given) |
| 59 | 61 | 24 |  |  |  |  | 79.4 | 100 |  |  | CCCn1c(=O)c2[nH]c(-c3ccc(OCC(=O)c4c(NC(=O)O)n(C)c(=O)n(C)c4=O)cc3)cc2n(CCC)c1=O |
| 100 | 41 | 72 | 51.3 | 20 | 14.8 |  |  |  |  |  | Cn1c(=O)c2[nH]c(-c3ccc(OCC(=O)Nc4ccc(F)cc4)cc3)cc2n(C)c1=O |
| 47 | 43 | 10 |  |  |  |  | 60.3 | 83.2 |  |  | CCCn1c(=O)c2[nH]c(-c3ccc(OCC(=O)NCc4ccccc4)cc3)c(Cl)c2n(CCC)c1=O |
| 45 | 35 | 10 |  |  |  |  | 45.7 | 145 |  |  | COc1cc(-c2cc3c([nH]2)c(=O)n(C)c(=O)n3C)ccc1OCC(=O)Nc1ccc(F)cc1 |
|  |  |  |  |  | 40.7 |  | 2.24 | 1.51 |  |  | CCCn1c(=O)c2[nH]c(-c3ccc(OCC(=O)Nc4ccccc4)cc3)nc2n(CCC)c1=O |
| 43 | 21 | 8 |  |  |  |  | 85.1 | 52.5 |  |  | CCCn1c(=O)c2[nH]c(-c3ccc(OCC(=O)Nc4ccc(C(C)=O)cc4)cc3)c(Cl)c2n(CCC)c1=O |
| 76 | 60 | 49 |  |  |  |  | 18.6 | 8.91 |  |  | CCCn1c(=O)c2[nH]c(-c3ccc(OCC(=O)Nc4ccc(OCc5ccccc5)cc4)cc3)cc2n(CCC)c1=O |
| 16 | 0 | 8 |  |  |  |  | 427 | 263 |  |  | COCCCn1c(=O)n(C)c(=O)c2[nH]c(-c3ccc(OCC(=O)NC4CCCC4)cc3)cc21 |
| 85 | 27 | 10 |  |  |  |  | 282 | 17.4 |  |  | CCCn1c(=O)c2[nH]c(-c3ccc(OCC(=O)Nc4ccc(S(=O)(=O)c5ccccc5)cc4)cc3)cc2n(CCC)c1=O |
| 93 | 88 | 48 |  |  |  |  | 25.7 | 9.77 |  |  | CCCn1c(=O)c2[nH]c(-c3ccc(OC(CC)C(=O)Nc4ccccc4)cc3)cc2n(CCC)c1=O (stereo not given) |
| 79 | 51 | 24 |  |  |  |  | 56.2 | 34.7 |  |  | CCCn1c(=O)c2[nH]c(-c3ccc(OCC(=O)Nc4ccc(O)cc4)cc3)cc2n(CCC)c1=O |
| 80 | 57 | 30 |  |  |  |  | 158 | 19.5 |  |  | CCCn1c(=O)c2[nH]c(-c3ccc(OCC(=O)Nc4ccc(I)cc4)cc3)cc2n(CCC)c1=O |
| 99 | 60 | 73 |  |  | 7.76 | 912 | 47.9 | 4.79 |  |  | CC(Oc1ccc(-c2cc3c([nH]2)c(=O)n(C)c(=O)n3C)cc1)C(=O)Nc1ccccc1 (stereo not given) |
| 94 | 47 | 51 |  |  |  |  | 79.4 | 7.94 |  |  | CCCn1c(=O)c2[nH]c(-c3ccc(OCC(=O)Nc4ccc(C(C)(C)C)cc4)cc3)cc2n(CCC)c1=O |
| 70 | 45 | 15 |  |  |  |  | 44.7 | 27.5 |  |  | CCCn1c(=O)c2[nH]c(-c3ccc(OCC(=O)Nc4ccc(OC)cc4)cc3)c(Cl)c2n(CCC)c1=O |
| 30 | 2 | 5 |  |  |  |  | 724 | 141 |  |  | CCCn1c(=O)c2[nH]c(-c3ccc(OCC(=O)Nc4ccccc4F)cc3)c(Cl)c2n(CCC)c1=O |

| SMILES | inhibition [1] [%] | inhibition [2] [%] | inhibition [3] [%] | Kb [4] [nM] | inhibition [5] [%] | Ki [6] [nM] | Ki [7] [nM] | Ki [8] [nM] | Ki [9] [nM] | Ki [10] [nM] | Ki [11] [nM] |
| --- | --- | --- | --- | --- | --- | --- | --- | --- | --- | --- | --- |
| CCCn1c(=O)c2[nH]c(-c3ccc(OCC(=O)NCc4ccccc4)cc3)nc2n(CCC)c1=O |  |  |  |  |  | 63.1 | 141 | 20 |  |  |  |
